Assays:
[1] = biological target: T1, rat P2X3 receptor (Rattus norvegicus, UniProt P49654); assay: P2X3/P2X2/3 FLIPR (Fluorometric Imaging Plate Reader) Assay, P2X3; assay type: cell-based; conditions: CHO-K1 cells transfected with rat P2X3; agonist α,β-meATP 1 μM; Table 1; read-out: P2X3 pKi (converted)
T1 construct: expressed in transfected cells; host or cells: CHO-K1
T1 sequence (P49654 1-397): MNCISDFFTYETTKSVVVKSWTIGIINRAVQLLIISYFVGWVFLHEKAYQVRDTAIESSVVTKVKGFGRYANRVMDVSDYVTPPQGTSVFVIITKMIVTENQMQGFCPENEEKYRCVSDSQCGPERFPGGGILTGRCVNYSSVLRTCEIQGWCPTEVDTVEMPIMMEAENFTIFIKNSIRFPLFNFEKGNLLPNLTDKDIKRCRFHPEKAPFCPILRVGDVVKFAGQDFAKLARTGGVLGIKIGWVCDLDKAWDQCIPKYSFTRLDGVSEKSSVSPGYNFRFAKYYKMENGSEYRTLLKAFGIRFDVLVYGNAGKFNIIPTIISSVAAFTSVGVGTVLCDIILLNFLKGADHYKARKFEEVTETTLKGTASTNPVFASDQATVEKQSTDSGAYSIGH
Procedure, shortened: (§1)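 Inhibition curves came from nonlinear regression of peak fluorescence after α,β-meATP, given at 1 μM final for rat P2X3 and 5 μM for human P2X2/3. Compounds sat 20 min at room temperature on Fluo-3-loaded transfected CHO-K1 cells in HBSS/HEPES/2 mM CaCl2/probenecid buffer before agonist.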

[2] = biological target: T2, human P2X2/3 receptor (Homo sapiens, UniProt P56373+Q9UBL9); assay: P2X3/P2X2/3 FLIPR (Fluorometric Imaging Plate Reader) Assay, P2X2/3; assay type: cell-based; conditions: CHO-K1 cells transfected with human P2X2/3; agonist α,β-meATP 5 μM; Table 1; read-out: P2X2/3 pKi (converted)
T2 construct: expressed in transfected cells; host or cells: CHO-K1
T2 sequence (Q9UBL9 1-471): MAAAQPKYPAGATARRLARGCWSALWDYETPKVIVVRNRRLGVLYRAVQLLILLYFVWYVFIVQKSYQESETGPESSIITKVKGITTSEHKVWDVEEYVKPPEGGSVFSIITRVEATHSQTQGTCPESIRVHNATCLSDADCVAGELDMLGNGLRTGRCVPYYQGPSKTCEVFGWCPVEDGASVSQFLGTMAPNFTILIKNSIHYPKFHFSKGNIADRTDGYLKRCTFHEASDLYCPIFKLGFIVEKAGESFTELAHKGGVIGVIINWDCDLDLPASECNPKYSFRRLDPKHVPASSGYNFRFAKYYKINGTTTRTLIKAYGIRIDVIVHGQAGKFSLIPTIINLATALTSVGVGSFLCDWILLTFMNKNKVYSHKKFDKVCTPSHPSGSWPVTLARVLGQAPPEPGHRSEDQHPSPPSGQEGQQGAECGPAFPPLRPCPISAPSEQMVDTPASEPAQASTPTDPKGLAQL
T2 sequence (P56373 1-397): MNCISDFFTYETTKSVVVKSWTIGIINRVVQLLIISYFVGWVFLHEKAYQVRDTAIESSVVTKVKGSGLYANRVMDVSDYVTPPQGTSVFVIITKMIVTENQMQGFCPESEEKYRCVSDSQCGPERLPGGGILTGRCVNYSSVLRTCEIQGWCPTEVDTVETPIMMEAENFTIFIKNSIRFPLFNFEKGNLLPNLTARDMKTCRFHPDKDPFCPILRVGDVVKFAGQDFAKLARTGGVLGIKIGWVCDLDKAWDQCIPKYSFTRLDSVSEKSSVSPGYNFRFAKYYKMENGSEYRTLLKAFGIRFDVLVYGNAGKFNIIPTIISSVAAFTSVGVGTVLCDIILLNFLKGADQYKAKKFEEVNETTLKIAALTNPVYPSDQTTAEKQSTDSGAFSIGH
Procedure, shortened: as §1

Row | SMILES | Ki [1] [nM] | Ki [2] [nM]
1 | Cc1ccc(-c2cc(C(=O)NCc3cnc(C)cn3)cc(-n3ncnc3C3CCC3)c2)nc1 [Compound 86, 3-(5-Cyclobutyl-[1,2,4]triazol-1-yl)-N-(5-methyl-pyrazin-2-ylmethyl)-5-(5-methyl-pyridin-2-yl)-benzamide] | 2.29 | 33.1
2 | Cc1ccc(-c2cc(C(=O)NC(C)c3cnccn3)cc(-n3ncnc3C3CCC3)c2)nc1 (stereo not drawn) [Compound 87, 3-(5-Cyclobutyl-[1,2,4]triazol-1-yl)-5-(5-methyl-pyridin-2-yl)-N-(1-pyrazin-2-yl-ethyl)-benzamide] | 2.63 | 35.5
3 | Cc1cnc(CNC(=O)c2cc(-c3ccc(Cl)cn3)cc(-n3ncnc3CC(C)C)c2)cn1 [Compound 89, 3-(5-Chloro-pyridin-2-yl)-5-(5-isobutyl-[1,2,4]triazol-1-yl)-N-(5-methyl-pyrazin-2-ylmethyl)-benzamide] | 4.17 | 89.1
4 | CC(C)Cc1ncnn1-c1cc(C(=O)N[C@@H](C)CO)cc(-c2ccc(Cl)cn2)c1 [Compound 90, 3-(5-Chloro-pyridin-2-yl)-N-((S)-2-hydroxy-1-methyl-ethyl)-5-(5-isobutyl-[1,2,4]triazol-1-yl)-benzamide] | 4.07 | 646
5 | CC(NC(=O)c1cc(-c2ccc(Cl)cn2)cc(-n2ncnc2CF)c1)c1cnccn1 (stereo not drawn) [Compound 91, 3-(5-Chloro-pyridin-2-yl)-5-(5-fluoromethyl-[1,2,4]triazol-1-yl)-N-(1-pyrazin-2-yl-ethyl)-benzamide] | 31.6 | 2950
6 | Cc1cnc(CNC(=O)c2cc(-c3ccc(Cl)cn3)cc(-n3ncnc3CF)c2)cn1 [Compound 92, 3-(5-Chloro-pyridin-2-yl)-5-(5-fluoromethyl-[1,2,4]triazol-1-yl)-N-(5-methyl-pyrazin-2-ylmethyl)-benzamide] | 21.4 | 2570
7 | C[C@@H](CO)NC(=O)c1cc(-c2ccc(Cl)cn2)cc(-n2ncnc2CF)c1 [Compound 93, 3-(5-Chloro-pyridin-2-yl)-5-(5-fluoromethyl-[1,2,4]triazol-1-yl)-N-((S)-2-hydroxy-1-methyl-ethyl)-benzamide] | 575 | 10000
8 | Cc1ccc(-c2cc(C(=O)N[C@@H](C)CO)cc(-n3ncnc3C(C)(C)C)c2)nc1 [Compound 94, 3-(5-tert-Butyl-[1,2,4]triazol-1-yl)-N-((S)-2-hydroxy-1-methyl-ethyl)-5-(5-methyl-pyridin-2-yl)-benzamide] | 12.3 | 10000
9 | Cc1ccc(-c2cc(C(=O)NC(C)c3cnccn3)cc(-n3ncnc3C(C)(C)C)c2)nc1 (stereo not drawn) [Compound 95, 3-(5-tert-Butyl-[1,2,4]triazol-1-yl)-5-(5-methyl-pyridin-2-yl)-N-(1-pyrazin-2-yl-ethyl)-benzamide] | 5.37 | 117
10 | Cc1ccc(-c2cc(C(=O)NC3CC3)cc(-n3ncnc3C(F)(F)F)c2)nc1 [Compound 96, N-Cyclopropyl-3-(5-methyl-pyridin-2-yl)-5-(5-trifluoromethyl-[1,2,4]triazol-1-yl)-benzamide] | 4.57 | 1260
11 | Cc1ccc(-c2cc(C(=O)N[C@@H](C)CO)cc(-n3ncnc3C(F)(F)F)c2)nc1 [Compound 97, N-((S)-2-Hydroxy-1-methyl-ethyl)-3-(5-methyl-pyridin-2-yl)-5-(5-trifluoromethyl-[1,2,4]triazol-1-yl)-benzamide] | 8.13 | 4680
12 | Cc1ccc(-c2cc(C(=O)NC(C)c3cnccn3)cc(-n3ncnc3C(F)(F)F)c2)nc1 (stereo not drawn) [Compound 98, 3-(5-Methyl-pyridin-2-yl)-N-(1-pyrazin-2-yl-ethyl)-5-(5-trifluoromethyl-[1,2,4]triazol-1-yl)-benzamide] | 2.24 | 45.7
13 | Cc1ccc(-c2cc(C(=O)NCc3cnc(C)cn3)cc(-n3ncnc3C(F)(F)F)c2)nc1 [Compound 99, N-(5-Methyl-pyrazin-2-ylmethyl)-3-(5-methyl-pyridin-2-yl)-5-(5-trifluoromethyl-[1,2,4]triazol-1-yl)-benzamide] | 3.24 | 36.3
14 | Cc1ccc(-c2cc(C(=O)NC(C)c3cnccn3)cc(-n3ncnc3C)c2)nc1 (stereo not drawn) [Compound 100, 3-(5-Methyl-pyridin-2-yl)-5-(5-methyl-[1,2,4]triazol-1-yl)-N-(1-pyrazin-2-yl-ethyl)-benzamide] | 10.2 | 2040
15 | Cc1ccc(-c2cc(C(=O)NCc3cnc(C)cn3)cc(-n3ncnc3C)c2)nc1 [Compound 101, N-(5-Methyl-pyrazin-2-ylmethyl)-3-(5-methyl-pyridin-2-yl)-5-(5-methyl-[1,2,4]triazol-1-yl)-benzamide] | 7.94 | 1150
16 | Cc1ccc(-c2cc(C(=O)N[C@@H](C)CO)cc(-n3ncnc3C)c2)nc1 [Compound 102, N-((S)-2-Hydroxy-1-methyl-ethyl)-3-(5-methyl-pyridin-2-yl)-5-(5-methyl-[1,2,4]triazol-1-yl)-benzamide] | 263 | 10000
17 | Cc1ccc(-c2cc(C(=O)NC(C)CN(C)C)cc(-n3ncnc3C(C)N(C)C)c2)cc1 (stereo not drawn) [Compound 103, 5-[5-(1-Dimethylamino-ethyl)-[1,2,4]triazol-1-yl]-4′-methyl-biphenyl-3-carboxylic acid (2-dimethylamino-1-methyl-ethyl)-amide] | 724 | 10000
18 | Cc1ccc(-c2cc(C(=O)NC3CC3)cc(-n3ncnc3C(C)N(C)C)c2)cc1 (stereo not drawn) [Compound 104, 5-[5-(1-Dimethylamino-ethyl)-[1,2,4]triazol-1-yl]-4′-methyl-biphenyl-3-carboxylic acid cyclopropylamide] | 7.76 | 407
19 | Cc1ccc(-c2cc(C(=O)N[C@@H](C)CO)cc(-n3ncnc3C(C)N(C)C)c2)cc1 (stereo partly drawn) [Compound 105, 5-[5-(1-Dimethylamino-ethyl)-[1,2,4]triazol-1-yl]-4′-methyl-biphenyl-3-carboxylic acid ((S)-2-hydroxy-1-methyl-ethyl)-amide] | 5.25 | 646
20 | CCc1ncnn1-c1cc(C(=O)NC(C)c2cnccn2)cc(-c2ccc(Cl)cn2)c1 (stereo not drawn) [Compound 106, 3-(5-Chloro-pyridin-2-yl)-5-(5-ethyl-[1,2,4]triazol-1-yl)-N-(1-pyrazin-2-yl-ethyl)-benzamide] | 19.1 | 759
21 | CCc1ncnn1-c1cc(C(=O)N[C@@H](C)CO)cc(-c2ccc(Cl)cn2)c1 [Compound 107, 3-(5-Chloro-pyridin-2-yl)-5-(5-ethyl-[1,2,4]triazol-1-yl)-N-((S)-2-hydroxy-1-methyl-ethyl)-benzamide] | 148 | 10000
22 | CCc1ncnn1-c1cc(C(=O)NC2CC2)cc(-c2ccc(Cl)cn2)c1 [Compound 108, 3-(5-Chloro-pyridin-2-yl)-N-cyclopropyl-5-(5-ethyl-[1,2,4]triazol-1-yl)-benzamide] | 97.7 | 4270
23 | CCCc1ncnn1-c1cc(C(=O)NCc2cnc(C)cn2)cc(-c2ccc(Cl)cn2)c1 [Compound 109, 3-(5-Chloro-pyridin-2-yl)-N-(5-methyl-pyrazin-2-ylmethyl)-5-(5-propyl-[1,2,4]triazol-1-yl)-benzamide] | 5.5 | 372
24 | CCCc1ncnn1-c1cc(C(=O)NC(C)c2cnccn2)cc(-c2ccc(Cl)cn2)c1 (stereo not drawn) [Compound 110, 3-(5-Chloro-pyridin-2-yl)-5-(5-propyl-[1,2,4]triazol-1-yl)-N-(1-pyrazin-2-yl-ethyl)-benzamide] | 7.24 | 355

Reference: patent publication US8440708B2, “Triazole-substituted arylamides as P2X3 and P2X2/3 antagonists” (Roche Palo Alto LLC, priority 2007, dated 2013)
